Laboratory results taken from patent publication US11040958B2, “Triazole antimicrobial derivative, pharmaceutical composition and use thereof” (priority 2017, dated 2021).

Tests used:
[1] = In vitro metabolic stability in human intestinal S9; format: in vitro ADME; details: human, intestinal S9; 37°C, S9 1 mg/mL, compound 10 μM, NADPH regeneration system; read-out: Human intestinal S9 T1/2
[2] = test system: Candida albicans ATCC10231; test: Systemic fungal infection in mice, intravenous administration, survival; format: in vivo; details: ICR mice, tail vein, 5 mg/kg (calculated as voriconazole) once daily for 5 days
Outline: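 Male ICR mice (18-22 g) infected via tail vein with C. albicans ATCC10231 at 5*10^6 cells/ml, 0.1 ml/10 g; groups of 10. From 2 h post-infection, 5 mg/kg (as voriconazole) given i.v. once daily for 5 days, saline vehicle (voriconazole in sulfobutyl ether-β-cyclodextrin); survival time recorded over 7 days.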

[3] = In vitro metabolic stability in rat plasma; format: in vitro ADME; details: rat, plasma; 37°C, compound 10 μM; read-out: Rat plasma T1/2
[4] = Solid stability test (25°C, RH 60%, 30 days); format: physicochemical; details: 25°C±2°C, relative humidity 60%±2%
[5] = In vitro metabolic stability in human plasma; format: in vitro ADME; details: human, plasma; 37°C, compound 10 μM; read-out: Human plasma T1/2
[6] = In vitro metabolic stability in rat intestinal S9; format: in vitro ADME; details: rat, intestinal S9, pH 7.4; 37°C, S9 1 mg/mL, compound 10 μM, NADPH regeneration system; read-out: Rat intestinal S9 T1/2

CC(OC(=O)SCCO)[n+]1cnn(C[C@](O)(c2ccc(F)cc2F)[C@@H](C)c2ncncc2F)c1 (some centres unmarked) [Compound 16037]
half-life at 10 µM [1]: 10.8 ± 1.97 min | survival rate of mice, day 1 ([2]; day 1): 100% | survival rate of mice, day 2 ([2]; day 2): 100% | survival rate of mice, day 3 ([2]; day 3): 90% | survival rate of mice, day 4 ([2]; day 4): 90% | survival rate of mice, day 5 ([2]; day 5): 90% | survival rate of mice, day 6 ([2]; day 6): 80% | half-life at 10 µM [3]: 7.65 ± 0.78 min | Content increase of total impurity (25° C., placed for 30 days) [4]: 2.15% | half-life at 10 µM [5]: 7.75 ± 0.56 min | half-life at 10 µM [6]: 16 ± 6.88 min
